Tested on: TNC, ACTA2, PAI-1 transcripts in lung cancer-associated fibroblasts (CAF)
Assay: TGF-β-induced gene transcription, fibroblast activation markers (RT-PCR)
Type: cell-based, human
Protocol: FIGS. 9A-9C illustrates the effect of Compound 1 on Transcriptional Markers of Fibroblast Activation in Lung Cancer Associated Fibroblasts Treated with TGF-β. […] Lung cancer-associated fibroblasts (CAF, black bars) were treated with 10 ng/mL TGF-β after 1-hour pre-incubation with a range of Compound 1 concentrations, and cells were lysed 24 hours later. Indicated gene transcripts were assessed by RT-PCR relative to GAPDH. Data were normalized to expression after TGF-β-treatment in the presence of only DMSO. Data are presented as mean of 3 biological replicates, and error bars indicate standard deviation. The graphs are representative of at least 2 independent experiments. *P<0.05; ** P<0.01, ***P<0.001; ****P<0.0001 by student's t-test. Abbreviations: ACTA2, smooth muscle actin; CAF, cancer associated fibroblasts; DMSO, dimethyl sulfoxide; GAPDH, glyceraldehyde-3-phosphate dehydrogenase; NHLF, normal lung human fibroblasts; PAI-1, plasminogen activator inhibitor 1; RNA, ribonucleic acid; RT-PCR, reverse transcription polymerase chain reaction; […], transforming growth factor beta; TNC, tenascin C.
Cells were seeded (75,000 NHLF and lung CAF cells) into 12 well plates with RPMI+10% FBS and allowed to adhere overnight at 37° C., 5% CO2. After one day of serum starvation, cells were pre-treated for 1 hour with DMSO or Compound 1 at 30 μM, 10 μM, 3 μM, 1 μM, or 0.3 μM and then stimulated with 10 ng/mL TGF-β. The 24-hour Compound 1 treated samples were harvested for ribonucleic acid (RNA) extraction.
Cells were directly lysed in Qiagen™ Buffer RLT Plus with 1% 2-Mercaptoethanol added. Total RNA from tumor samples and cell lines was isolated using Qiagen™ AllPrep® DNA/RNA 96 Kit according to manufacturer's protocol. Isolated RNA was analyzed with NanoDrop™ ONE Spectrophotometer for concentration. The RNA integrity was also analyzed on Agilent TapeStation 4200.
Complimentary deoxyribonucleic acid (cDNA) was prepared by using Invitrogen™ SuperScript™ III First-Strand Synthesis SuperMix for qRT-PCR. Up to 1 μg of RNA was prepared according to manufacturer's protocol, using Applied Biosystems™ Veriti™ 96-well thermal cycler. The reverse transcription (RT) program used for cDNA synthesis: • 1. 25° C., 10 minutes • 2. 50° C., 30 minutes • 3. 85° C., 5 minutes • 4. Add E. Coli RNase H, 37° C., 20 minutes • 5. Hold at 4° C. Quantitative Reverse Transcription Polymerase Chain Reaction (qRT-PCR).
The cDNA was diluted 1:3 fold in nuclease-free water for quantitative polymerase chain reaction (qPCR) setup. Human and mouse TaqMan™ assays for targeted genes were ordered through Applied Biosystems™. TaqMan™ assay selection was based on manufacturer's recommendation. The qRT-PCR was set up using Applied Biosystems™ TaqMan™ Fast Advanced Master Mix according to manufacturer's protocol. The qRT-PCR was run on QuantStudio™ 12 Flex with fast run mode: • 1. 95° C., 20 seconds • 2. 95° C., 1 second • 3. 60° C., 20 seconds • 4. Repeat steps 2-3, 39 times
The qPCR data was analyzed, and all cycle threshold (Ct) values were normalized to glyceraldehyde-3-phosphate dehydrogenase (GAPDH) (ΔCt). Analysis was plotted and presented using GraphPad Prism (GraphPad, Version 8.4.1, San Diego, CA).
The levels of phospho-c-Jun in NHLF and non-small cell lung CAF in response to TGF-β in the presence of DMSO or varying concentrations of Compound 1 were summarized in FIG. 7. Cells were treated with DMSO or Compound 1 for 1 hour prior to treatment with 10 ng/mL TGF-β for an additional 2 hours. Phospho-c-Jun levels were determined by western blot analysis and were normalized to DMSO treated samples. […] The relative expression of fibroblast activation markers in NHLF and lung CAF in response to TGF-β in the presence of DMSO or varying concentrations of Compound 1 were summarized in FIGS. 8A-8C and FIGS. 9A-9C. Cells were treated with DMSO or Compound 1 for 2 hours prior to treatment with 10 ng/mL TGF-β. The RNA expression was assessed 24 hours after TGF-β treatment.

[1] = CAF stimulated with TGFβ, 10 μM Compound 1
[2] = CAF, 30 μM Compound 1, 10 ng/mL TGF-β, 24 hours

C[C@@H]1CC[C@@H](Nc2nc(NC(C)(C)C)ncc2C(N)=O)C[C@H]1O [Compound 1, 2-(tert-butylamino)-4-((1R,3R,4R)-3-hydroxy-4-methylcyclohexylamino)-pyrimidine-5-carboxamide]
PAI-1 reduced relative to DMSO [1]: PAI-1, ACTA2, and TNC were reduced 71%, | TNC reduced relative to DMSO [1]: 77% | TNC induction, reduction from peak activation relative to baseline (CAF, 0.3 μM Compound 1, 10 ng/mL TGF-β, 24 hours): 34% | PAI-1 induction, reduction from peak activation relative to baseline (CAF, 1 μM Compound 1, 10 ng/mL TGF-β, 24 hours): 25% | ACTA2 induction, reduction from peak activation relative to baseline (CAF, 10 μM Compound 1, 10 ng/mL TGF-β, 24 hours): 71% | ACTA2 expression [2]: lower than samples in the absence of TGF-β | PAI-1 induction, reduction from peak activation relative to baseline [2]: 98% | TNC induction, reduction from peak activation relative to baseline [2]: 97%

Reference: patent US20240165112A1, “THERAPY FOR THE TREATMENT OF CANCER” (Bristol-Myers Squibb Company, priority 2022, published 2024)
